Experimental data from PMC4381037 (The FEBS journal, 2009).

Molecular target: T1, His6-RMDPa (Pseudomonas aeruginosa, UniProt Q9HTB6)
T1 sequence (Q9HTB6 2-304 limits assumed): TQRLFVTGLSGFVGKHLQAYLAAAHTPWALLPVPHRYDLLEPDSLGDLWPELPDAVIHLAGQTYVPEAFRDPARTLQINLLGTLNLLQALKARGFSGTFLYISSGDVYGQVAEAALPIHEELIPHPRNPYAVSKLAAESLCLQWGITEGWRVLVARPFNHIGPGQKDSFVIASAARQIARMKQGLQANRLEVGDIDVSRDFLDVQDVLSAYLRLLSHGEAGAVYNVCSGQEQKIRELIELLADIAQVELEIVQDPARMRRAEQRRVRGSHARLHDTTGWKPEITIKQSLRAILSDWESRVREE
Test: capillary electrophoresis and NMR of product
Format: biochemical
Settings: with GDP-6-deoxy-D-lyxo-hexos-4-ulose; hydride donor; 37 °C, pH 7.5

NC(=O)C1=CN([C@@H]2O[C@H](COP(=O)(O)OP(=O)(O)OC[C@H]3O[C@@H](n4cnc5c(N)ncnc54)[C@H](OP(=O)(O)O)[C@@H]3O)[C@@H](O)[C@H]2O)C=CC1 [NADPH]
capillary electrophoresis and NMR of product: in the presence of excess NADPH, His6-RMDPa catalyzed the conversion
